Test results as given in PMC7647111, “Antileishmanial compounds from Connarus suberosus: Metabolomics, isolation and mechanism of action” (PLoS ONE, 2020).
Values joined by “and” are separate entries in the source; they are usually repeats but may differ in a detail not shown here. Equal values may be shown once.

What was measured:
[1] = test system: L. amazonensis promastigotes; assay: Cell membrane integrity (propidium iodide); assay type: cell-based, Leishmania amazonensis; conditions: 24 h; 2 at 33.8 μM, 3 at 11.4 μM
Procedure: Plates were incubated with propidium iodide (PI) (1.0 μg/mL—Sigma-Aldrich, USA, St. Louis, MO, USA) for 15 min in the dark at RT. Fluorescence was measured using a spectrofluorometer (FLx800, BioTek Instruments, Inc., Winooski, VT, USA) with 540/600 nm excitation/emission. Parasites heated at 65 °C were used as the positive control.

[2] = test system: L. amazonensis promastigotes; assay: Antiproliferation assay: L. amazonensis promastigotes (24 h), resazurin; assay type: cell-based, Leishmania amazonensis (IFLA/BR/1967/PH8); conditions: Leishmania amazonensis, 24 h of exposure, read-out: IC50
Procedure: (§1) Leishmania amazonensis promastigotes (IFLA/BR/1967/PH8) for the 24 h exposure test were cultivated in RPMI 1640, supplemented with 20% v/v heat inactivated fetal bovine serum (FBS) and incubated at 26°C until near the end of the log growth phase. Leishmania amazonensis (IFLA/BR/1967/PH8) and L. infantum (MCAN/BR/2008/1112) promastigotes used in the 72 h exposure test were cultivated in Warren’s medium (containing brain heart infusion- BHI plus hemin and folic acid), supplemented with 10% FBS, 0.1% of the antibiotics: 100 UI/mL penicillin G and 0.1 mg/mL streptomycin. Leishmania amazonensis (IFLA/BR/1967/PH8) transfected with the red fluorescent protein (RFP) gene was cultured in M199 medium (containing 0.1 mmol/L adenine, 40 mmol/L hepes, 0.0005% hemin and 0.0002% biotin), supplemented with 10% FBS, and 0.1% of the antibiotic. Parasites were maintained at 25°C in a BOD incubator.
Extracts and fractions were tested against L. amazonensis (IFLA/BR/1967/PH8) promastigote cells in a 96-well plate at a concentration of 10^6 cells/well. Each sample was solubilized in DMSO (<1%) since it was not soluble directly in the medium. Extracts were tested at 100 μg/mL and 50 μg/mL. […] Plates were read at 570 nm and 595 nm in a microplate reader (BiochromAsys UVM 340) after cell lysis with sodium dodecyl sulfate (SDS). Viability was calculated based on the equations described by Kulshrestha.

[3] = test system: L. amazonensis promastigotes; assay: Reactive oxygen species (ROS) detection (H2DCFDA); assay type: cell-based, Leishmania amazonensis; conditions: 24 h; 2 at 33.8 μM, 3 at 11.4 μM
Procedure: Fluorescence intensity was detected using a fluorimetric microplate reader (FLx800, BioTek Instruments, Inc., Winooski, VT, USA), at 485/528 nm excitation/emission. Promastigotes incubated with miltefosine (44.2 μM) were used as a positive control.

[4] = test system: L. amazonensis promastigotes; assay: Neutral lipid quantification (Nile Red); assay type: cell-based, Leishmania amazonensis; conditions: 24 h; 2 at 33.8 μM, 3 at 11.4 μM
Procedure: After 24 h of exposure, the parasites (1x10^7 cells/well) were stained with 10 μg/mL Nile Red (Sigma-Aldrich, St. Louis, MO, USA) in the dark for 20 min at 25°C. Fluorescence intensity was analysed in a spectrofluorometer (BioTek Instruments, Inc., Winooski, VT, USA) using 485/528 nm excitation/emission.

[5] = test system: L. infantum promastigotes; assay: Antiproliferation assay: L. infantum promastigotes (72 h), MTT; assay type: cell-based, Leishmania infantum (MCAN/BR/2008/1112); conditions: Leishmania infantum, 72 h, 72 h exposure
Procedure: as §1
Extracts and isolated compounds were tested against L. amazonensis promastigotes (IFLA/BR/1967/PH8 strain - 2x10^5 cells/well) and L. infantum promastigotes (MCAN/BR/2008/1112 strain - 3x10^5 cells/well). The samples were solubilized in DMSO (<1%), serially diluted (100 μg/mL to 1.56 μg/mL) and tested in a 96-well plate to obtain a dose-response curve. Miltefosine and DMSO were used as positive and negative controls, respectively. After 72 h, 10 μL of 3-(4,5-dimethylthiazol-2-yl)-2,5-diphenyl tetrazolium bromide (5 mg/mL—MTT, Sigma-Aldrich) solution was added to each well and the plate returned to the incubator for an additional 4 h. To halt the reaction, 100 μL acidified isopropanol was added to each well. Plates were read at 570 nm in a microplate reader (Multiskan MS, LabSystems Oy, Helsinki, Finland).

Cytotoxicity assay (MTT) = assay type: cell-based, BALB/c mice; conditions: female, BALB/c, mouse, murine peritoneal macrophages; 72 h exposure
Procedure: Female BALB/c mice pre-inoculated with 3% thioglycollate medium were used to obtain macrophages from the peritoneal cavity. Peritoneal exudate was collected 72 h post-inoculation using cold Hank´s Balanced Salt Solution and the assay performed as previously reported. Briefly, peritoneal macrophages in RPMI 1640 medium were transferred to a 96-well plate (2x10^5 cells/well) and incubated at 37°C in 5% CO2 for 24 h to allow adhesion. Samples were serially diluted (100 μg/mL to 0.78 μg/mL), added to the plate with the cells and incubated under the same conditions for 72 h. MTT (10 μL/well) was subsequently added and the plates re-incubated for a further 2 h. To halt the reaction, 100 μL of acidified isopropanol was added to each well. The plate was then read at 570 nm in a microplate reader (Multiskan MS, LabSystems Oy, Helsinki, Finland).

For `C=C[C@@H](c1cc(CC=C(C)C)ccc1O)c1cc(CC=C(C)C)c(OC)cc1O` [Compound 3, connarin], the “plasma membrane integrity (PI-positive parasites)” value [1] was “did not interfere with plasma membrane permeation”, the IC50 [2] was 20.5 µM and the ROS level [3] was “no alteration in the ROS level”. For the same compound, the “increase in neutral lipid levels in relation to the untreated control” value [4] was 82.0%, the IC50 [5] was 5.2 µg/mL and 13.3 µM and the CC50 at 72 h (Cytotoxicity assay (MTT)) was 7.2 µg/mL and 18.3 µM.
